Laboratory results: publication PMC12006031, “Inhibitory Effect of Whey Protein‐Derived Peptide Leu‐Asp‐Gln‐Trp on Xanthine Oxidase” (Food Science & Nutrition, 2025)
Where two headings read alike, the source gives them in different places. Residues, ends and D or L forms follow the SMILES beside them. No end group written: not given here.

Legend:
[1] = target: T1, XO from bovine milk (Bos taurus, UniProt P80457); assay: XO inhibitory activity by absorptiometry (absorbance at 290 nm, microplate reader); assay type: biochemical; settings: for Suppression of the absorbance increase / enzymatic reaction compared with control (relative absorbance): 290 nm every 5 min for 30 min, Figure 2; for Concentration dependence of XO inhibitory activity / Concentration with significant XO inhibition: absorptiometry; for Concentration with significant XO inhibition: vs. control, p < 0.01, one-way ANOVA, Tukey-Kramer
T1 construct: XO from bovine milk and xanthine were purchased from Sigma‐Aldrich Corp. (MO, USA); purchased Sigma‐Aldrich Corp. (MO, USA); host or cells: bovine milk (natural source)
Protocol: (§1) Tryptophan and leucine were obtained from Kanto Chemical Co. Ltd. (Tokyo, Japan). The evaluation samples such as peptides and amino acids, and allopurinol (FUJIFILM Wako Pure Chemical Corp., Tokyo, Japan) as a positive control for the evaluation method, were suspended in 0.1 M phosphate buffer pH 7.2 (FUJIFILM Wako Pure Chemical Corp., Tokyo, Japan) containing 0.1 M sodium chloride. The samples were obtained for the assay after sonication for 10 min. XO from bovine milk and xanthine were purchased from Sigma‐Aldrich Corp. (MO, USA). […] The xanthine solution was prepared by diluting it with buffer at a ratio of 1:10.
2.2 Enzymatic Reaction and Monitoring of Absorbance Using a Microplate Reader
(§2) Briefly, the samples (e.g., LDQW) or allopurinol were mixed with the XO solution (final concentration: 25 U/L). A mixture added to the buffer instead of the sample was analyzed as a control. […] The sample, XO solution, and xanthine solution were reacted in a 2:1:1 ratio. The assay was performed in triplicate. The XO inhibitory activity was calculated using the following equation: XOinhibitory activity%=1−AbS30min−AbS0min/AbC30min−AbC0min×100
AbS30min : Absorbance of the sample at 30 min.
AbS0min : Absorbance of the sample at 0 min.
AbC30min : Absorbance of the control at 30 min.
AbC0min : Absorbance of the control at 0 min.
(§3) All experiments were performed in triplicate, with data indicated as mean ± standard deviation (SD). […] One‐way analysis of variance (ANOVA) was used for parametric analyses, followed by the Tukey–Kramer test. p values of < 0.05 were considered statistically significant.

[2] = target: T1, XO from bovine milk; assay: XO inhibitory activity by LC-MS/MS quantification of uric acid; assay type: biochemical; settings: for XO inhibitory activity (inhibition ratio): 20 mM, UA by LC-MS/MS (PRM m/z 169.03/70.04) after 30 min, XO 25 U/L, xanthine 0.42 mM, 0.1 M phosphate buffer pH 7.2 containing 0.1 M sodium chloride, mean ± SD; for XO inhibitory activity (inhibition ratio) / Concentration with significant XO inhibition / Significance of XO inhibition at any concentration: n = 3; for Concentration dependence of XO inhibition: Figure 5 or Figure 6; for Concentration with significant XO inhibition: vs. control, Figure 5; for Concentration with significant XO inhibition / Significance of XO inhibition at any concentration: one-way ANOVA, Tukey-Kramer; for Significance of XO inhibition at any concentration: tryptophan Figure 5, leucine Figure 6
Protocol: as §1, §2
2.3 Determination of XO Inhibitory Activity Using LC–MS/MS
To halt the enzymatic reaction, an equal volume of 1 M HCl, purchased from Kanto Chemical Co. Ltd. (Tokyo, Japan), was promptly added to the mixture after the absorbance was monitored for 30 min (Figure 1A). The mixture was then diluted 50‐fold with water containing 0.2% (v/v) formic acid (FA), which was purchased from Kanto Chemical Co. Ltd. (Tokyo, Japan), to prepare analytical samples for LC–MS/MS. UA in the analytical samples was measured using a Vanquish Ultra‐High‐Performance LC system coupled with a Vanquish variable wavelength detector VF‐D40 and a Q Exactive Focus (Thermo Fisher Scientific Inc., MA, USA). UA in the analytical samples was separated using an XBridge Peptide BEH C18 Column (2.1 mm i.d. × 250 mm, 3.5 μm, Waters Inc., MA, USA).
UA separation was achieved using 0.1% (v/v) FA in water (solvent A) and 0.1% FA in methanol (solvent B, Kanto Chemical Co. Ltd., Tokyo, Japan) with the following gradient over 22 min: 2% B for 5 min, increased from 2% to 10% B over 3 min, from 10% to 80% B over 2 min, held at 80% B for 2 min, decreased from 80% to 2% B over 0.1 min and held at 2% B for 10 min. The column temperature and flow rate were maintained at 40°C and 0.2 mL/min, respectively. During separation, the absorbance was monitored at 290 nm.
MS detection was performed in positive ion mode. […] The peak area detected at a retention time of 4.3 min was analyzed using Thermo Scientific Xcalibur. UA was quantified using the absolute calibration curve method, which was constructed from the peak areas of UA at various concentrations. XO inhibitory activity was calculated as [1 − UAs/UAc] × 100%, where UAs and UAc represent the amount of UA in the samples and control, respectively.
as §3

[3] = tested on: xanthine oxidase (XO); settings: cited from earlier work; for IC50: literature value, ref He et al. [2019], Mao et al. [2023], Xu, Liu, et al. [2024], read-out: IC50 (XO inhibition)
[4] = tested on: rat model of hyperuricemia; settings: orally administered, ref He et al. [2024], Qi et al. [2022a]; cited from earlier work
Text: There have been numerous reports on bioactive peptides with XO inhibitory activity.

[5] = tested on: rat model of hyperuricemia; settings: ref Qi et al. [2023], [2024]; cited from earlier work
Text: As study limitations, the mechanism for alleviating hyperuricemia is known to involve not only XO activity inhibition but also other factors, such as UA excretion promotion and UA reabsorption inhibition (Cicero et al. [2021]).

[6] = 20 mM, absorbance at 290 nm, 0-30 min, XO 25 U/L, xanthine 0.42 mM, 0.1 M phosphate buffer pH 7.2 containing 0.1 M sodium chloride, mean ± SD, n = 3, Figure 3
[7] = experiment of Figure 6 (DQW fragment)
[8] = 1-20 mM tested, n = 3, Figure 3

T1 sequence (P80457 whole entry): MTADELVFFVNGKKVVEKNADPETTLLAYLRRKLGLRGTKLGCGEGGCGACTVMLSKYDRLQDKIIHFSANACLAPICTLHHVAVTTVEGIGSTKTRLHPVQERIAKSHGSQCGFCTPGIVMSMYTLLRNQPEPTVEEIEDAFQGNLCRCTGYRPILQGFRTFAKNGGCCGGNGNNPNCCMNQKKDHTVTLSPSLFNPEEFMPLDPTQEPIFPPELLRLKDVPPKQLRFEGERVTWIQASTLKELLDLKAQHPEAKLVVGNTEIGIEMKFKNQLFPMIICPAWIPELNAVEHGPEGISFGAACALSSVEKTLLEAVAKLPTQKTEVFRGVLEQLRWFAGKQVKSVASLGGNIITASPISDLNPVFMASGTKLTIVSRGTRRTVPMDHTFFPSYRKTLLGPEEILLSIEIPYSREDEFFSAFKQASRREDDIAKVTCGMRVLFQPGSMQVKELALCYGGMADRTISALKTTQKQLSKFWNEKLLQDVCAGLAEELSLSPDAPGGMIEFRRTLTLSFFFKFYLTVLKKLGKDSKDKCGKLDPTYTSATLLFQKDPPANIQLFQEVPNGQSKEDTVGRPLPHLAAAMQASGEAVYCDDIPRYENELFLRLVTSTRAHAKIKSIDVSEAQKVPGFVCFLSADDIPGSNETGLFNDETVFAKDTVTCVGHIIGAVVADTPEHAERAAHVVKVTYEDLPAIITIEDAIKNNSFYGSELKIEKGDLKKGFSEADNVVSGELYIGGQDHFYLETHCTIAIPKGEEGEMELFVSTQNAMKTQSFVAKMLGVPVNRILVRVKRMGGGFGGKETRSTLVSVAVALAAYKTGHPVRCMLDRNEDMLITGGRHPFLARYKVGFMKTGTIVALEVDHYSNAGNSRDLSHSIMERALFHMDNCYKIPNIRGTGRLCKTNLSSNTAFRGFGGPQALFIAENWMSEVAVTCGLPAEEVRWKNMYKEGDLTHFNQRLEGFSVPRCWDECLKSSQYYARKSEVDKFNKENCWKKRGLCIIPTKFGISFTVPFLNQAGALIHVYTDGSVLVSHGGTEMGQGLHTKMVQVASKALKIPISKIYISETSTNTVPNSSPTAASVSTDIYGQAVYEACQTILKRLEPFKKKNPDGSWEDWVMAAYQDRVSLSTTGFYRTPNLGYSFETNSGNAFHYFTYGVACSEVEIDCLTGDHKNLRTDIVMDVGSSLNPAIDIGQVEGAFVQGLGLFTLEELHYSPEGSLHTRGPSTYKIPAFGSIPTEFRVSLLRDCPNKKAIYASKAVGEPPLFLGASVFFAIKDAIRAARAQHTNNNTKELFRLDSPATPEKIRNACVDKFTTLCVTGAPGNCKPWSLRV

**Q.** With `CC(C)C[C@H](N)C(=O)N[C@@H](CC(=O)O)C(=O)N[C@@H](CCC(N)=O)C(=O)N[C@@H](Cc1c[nH]c2ccccc12)C(=O)O` [LDQW, Leu‐Asp‐Gln‐Trp] (H-LDQW-OH) as the compound, how does the inhibition at 20000 µM [1, 6] read?
**A.** 96.4%

**Q.** And the “XO inhibitory activity (inhibition ratio)” value ([2]; experiment of Figure 5)?
**A.** 58.0% ± 2.8

**Q.** And the “XO inhibitory activity (inhibition ratio)” value [2, 7]?
**A.** 57.9% ± 3.2

**Q.** For `Oc1ncnc2[nH]ncc12` [allopurinol], which “Suppression of the absorbance increase / enzymatic reaction compared with control (relative absorbance)” value ([1]; n = 3) is on record?
**A.** suppressed the increase in absorbance in a concentration‐dependent manner

**Q.** What about the “Concentration dependence of XO inhibitory activity” value ([1]; Figure 3) of the same compound?
**A.** increased with rising concentrations in a concentration‐dependent manner

**Q.** And the “Concentration with significant XO inhibition” value ([1]; allopurinol positive control, 1-50 μM tested, n = 3, Figure 3)?
**A.** ≥ 0.001 mM

**Q.** And the “XO inhibition reported earlier” value ([3]; ref Klein et al. [1996])?
**A.** reported to have XO inhibitory activity

**Q.** What about the “Concentration dependence of XO inhibition” value ([2]; LC-MS/MS) of the same compound?
**A.** significantly inhibited XO activity in a concentration‐dependent manner

**Q.** And the “Concentration with significant XO inhibition” value ([2]; allopurinol positive control, LC-MS/MS)?
**A.** ≥ 1 µM

**Q.** With `CC(C)C[C@H](N)C(=O)O` [leucine] as the compound, how does the “Significance of XO inhibition at any concentration” value ([2]; LC-MS/MS) read?
**A.** no significant XO inhibition was observed

**Q.** With `N[C@@H](Cc1c[nH]c2ccccc12)C(=O)O` [tryptophan] as the compound, how does the inhibition at 20000 µM [1, 6] read?
**A.** 95.2%

**Q.** What about the “Suppression of the absorbance increase / enzymatic reaction compared with control (relative absorbance)” value ([1]; n = 3) of the same compound?
**A.** the enzymatic reaction by XO was suppressed compared with the control

**Q.** And the “Concentration dependence of XO inhibitory activity” value ([1]; Figure 3)?
**A.** increased with rising concentrations in a concentration‐dependent manner

**Q.** What about the “Concentration with significant XO inhibition” value [1, 8] of the same compound?
**A.** ≥ 1 mM

**Q.** And the “XO inhibitory activity (inhibition ratio)” value ([2]; experiment of Figure 5)?
**A.** 4.4% ± 3.7

**Q.** And the “Significance of XO inhibition at any concentration” value ([2]; LC-MS/MS)?
**A.** did not exhibit significant XO inhibition at any concentration

**Q.** Which IC50 [3] does the source give for Ala‐Leu here?
**A.** 34.5 mM

**Q.** Which XO inhibitory activity [1, 6] does the source give for “Ala‐Leu‐Pro‐Met [ALPM, milk protein-derived peptide used for comparison]” here?
**A.** 25.2% ± 1.9

**Q.** What about the “Suppression of the absorbance increase / enzymatic reaction compared with control (relative absorbance)” value ([1]; n = 3) of the same compound?
**A.** suppressed this increase compared with the control

**Q.** And the “Concentration with significant XO inhibition” value [1, 8]?
**A.** 20 mM

**Q.** And the “XO inhibition reported earlier” value ([3]; ref Qi et al. [2022a], [2022b])?
**A.** inhibit XO

**Q.** And the “XO inhibitory activity (inhibition ratio)” value ([2]; experiment of Figure 5)?
**A.** 45.0% ± 1.0

**Q.** And the “Concentration dependence of XO inhibition” value ([2]; LC-MS/MS)?
**A.** increase in the inhibition ratio in a concentration‐dependent manner

**Q.** And the “Concentration with significant XO inhibition” value ([2]; LC-MS/MS)?
**A.** ≥ 5000 µM

**Q.** And the Renal dysfunction [4]?
**A.** improve renal dysfunction

**Q.** And the “Serum uric acid (SUA) levels” value [4]?
**A.** reduce SUA levels

**Q.** For Ala‐Met, which IC50 [3] is on record?
**A.** 40.5 mM

**Q.** What does the source list for Asp‐Gln‐Trp [DQW]?
**A.** XO inhibitory activity (inhibition ratio) [2, 7]: 48.4% ± 8.5; XO inhibitory activity in comparison with another peptide ([2]; LC-MS/MS): comparable to that of LDQW; Concentration dependence of XO inhibition ([2]; LC-MS/MS): significantly inhibited XO activity in a concentration‐dependent manner

**Q.** For Gly‐Leu, which IC50 [3] is on record?
**A.** 10.2 mM

**Q.** What does the source list for Leu‐Leu‐Trp [LLW]?
**A.** Expression of genes related to UA synthesis in the liver [5]: reduce the expression of genes related to UA synthesis in the liver; Gene expression for UA excretion in the kidneys [5]: enhance gene expression for UA excretion in the kidneys; XO inhibition reported earlier ([3]; ref Qi et al. [2023], [2024]): known for their XO inhibitory activities

**Q.** For Phe‐His, which IC50 [3] is on record?
**A.** 25.7 mM

**Q.** With “Pro‐Glu‐Trp [PEW, peptide derived from milk proteins]” as the compound, how does the “Expression of genes related to UA synthesis in the liver” value [5] read?
**A.** reduce the expression of genes related to UA synthesis in the liver

**Q.** What about the “Gene expression for UA excretion in the kidneys” value [5] of the same compound?
**A.** enhance gene expression for UA excretion in the kidneys

**Q.** What about the “XO inhibition reported earlier” value ([3]; ref Qi et al. [2022a], [2022b]) of the same compound?
**A.** inhibit XO

**Q.** And the “XO inhibition reported earlier” value ([3]; ref Qi et al. [2023], [2024])?
**A.** known for their XO inhibitory activities

**Q.** For Pro‐Met, which IC50 [3] is on record?
**A.** 23.8 mM

**Q.** With YNITGW as the compound, how does the IC50 [3] read?
**A.** 9.8 mM
